Among the data in article PMC4931252 (Nature Communications, 2016) are Kd values, retold here.

The target in this assay is T1, prion protein PrP (PrP^C, SHaPrP) (Mesocricetus auratus, UniProt P04273).
T1 construct: gene PRNP
The class given is binding.

T1 sequence (P04273 90-231 limits assumed): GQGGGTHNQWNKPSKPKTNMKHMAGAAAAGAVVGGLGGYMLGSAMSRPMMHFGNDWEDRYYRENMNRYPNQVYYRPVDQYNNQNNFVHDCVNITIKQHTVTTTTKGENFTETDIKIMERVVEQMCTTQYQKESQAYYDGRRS

What is called Kd is the free concentration of one partner at which half of the binding sites on the other are occupied at equilibrium, for simple one-to-one binding. Compound `C[n+]1ccc(-c2c3nc(c(-c4cc[n+](C)cc4)c4ccc([nH]4)c(-c4cc[n+](C)cc4)c4nc(c(-c5cc[n+](C)cc5)c5ccc2[nH]5)C=C4)C=C3)cc1.[Fe+3]` [Fe-TMPyP, iron(III) meso-tetra (N-methyl-4-pyridyl-porphine)] came in with a Kd of 9 ± 3 µM.
